# Source: US20250114424A1, “PLANT EXTRACT-BASED COMPOSITION AND ITS USE FOR TREATING GLUCOSE METABOLISM DISORDERS” (ESSERRE PHARMA SRL, priority 2021, published 2025)
# Key:
# incidence of diabetes = settings: pharmacological treatment vs lifestyle changes (58%); cited from earlier work
# [1] = system: rats with streptozocin-induced diabetes; settings: 40 mg/kg for 30 days; cited from earlier work
# [2] = system: semi-professional cyclists; settings: single dose of 500 mg; cited from earlier work
# [3] = system: subjects with type II diabetes mellitus; settings: 500 mg daily for 6 weeks; cited from earlier work
# [4] = cited from earlier work
# [5] = in vivo; cited from earlier work
# [6] = system: adult individuals with dysglycaemia (baseline blood glucose between 100 and 125 mg/dL); experiment: Clinical evaluation of the efficacy of the composition: double-blind, placebo-controlled pilot clinical study, 12 weeks; type: in vivo, humans
# Experimental: A single-centre, […], double-blind, placebo-controlled, pilot clinical study was conducted to evaluate the efficacy of the composition object of the present invention on humans in reducing insulin resistance-related risk factors. The study was carried out in accordance with the guidelines of the Helsinki Declaration and approved by the Ethics Committee of the Hospital. 100 adult individuals of both sexes were enrolled (47 women and 53 men, aged 20 to 75 years) with dysglycaemia (baseline blood glucose between 100 and 125 mg/dL on at least two consecutive occasions), in primary prevention for cardiovascular disease.
# Exclusion criteria: dysglycaemia secondary to pathological or iatrogenic causes, systemic diseases associated with dysglycaemia, uncompensated dysthyroidism, treatment with drugs potentially interacting with glucose metabolism (for example corticosteroids, atypical antipsychotics).
# The subjects enrolled were randomized into 5 groups, each consisting of 20 individuals: • Group A: 1 tablet of active (COMP) twice daily • Group B: 1 placebo tablet twice daily • Group C: 1 tablet of lemon extract 250 mg twice daily • Group D: 1 tablet of blood orange extract 100 mg twice daily • Group E: 1 tablet of chromium 100 mcg twice daily
# All the enrolled subjects were subjected, 14 days prior to enrolment (T-14), to a pre-enrolment visit with blood tests to assess meeting the inclusion criteria. The individuals who met the TO inclusion criteria underwent a randomization visit at which the respective treatment was assigned and blood tests were performed in relation to the reference parameters.
# The study lasted 12 weeks.
# At the end of treatment (T12), the subjects were subjected to an end-of-study visit and blood tests.
# The parameters investigated in the study are: Body mass index, systolic and diastolic blood pressure, glycated haemoglobin (HbAlc) fasting plasma glucose (FPG), fasting insulinemia (FPI), HOMA-index, triglycerides, gammaGT, creatinine phosphokinase (CPK).
# The treatment called “active” or “COMPOSITION (COMP)” consists of a 570 mg tablet consisting of 250 mg lemon extract, 100 mg blood orange extract, 100 mcg chromium (as chromium picolinate), in addition to excipients such as calcium phosphate, magnesium stearate, silicon dioxide, hydroxypropyl cellulose, mono- and di-glycerides of fatty acids, microcrystalline cellulose, yellow iron oxide as a dye, coating agents. The treatment called “placebo” consists of a tablet equal in shape, weight, colour size and flavour to the active tablet but containing “inert” material for the desired effect and consists of: microcrystalline cellulose, magnesium stearate, silicon dioxide, calcium phosphate, chlorophylline dye, yellow iron oxide dye, coating agents.
# The treatments related to groups C, D and E consist of one tablet equal in appearance to the tablets of groups A and B but consisting of the single active ingredient, as described above in addition to excipients.
# The treatment tablets were packaged in anonymous white bottles, showing only the batch number consisting of an alphanumeric code and the expiration date. Neither the investigator nor the study subjects knew the contents of the bottles. The bottles of each treatment were placed in cardboard boxes containing a letter in a sealed envelope with reference to the batch number and content, to be opened only in case of need, as in cases of serious adverse events. After randomization, each study participant was given the bottle with 60 tablets for the specific treatment of the group to which they belonged.
# All the subjects were instructed to take one tablet in the morning and one in the evening for 12 weeks.
# [7] = 12-Week follow-up, 1 tablet twice daily
molecule,measurement,setting,value
CN(C)C(=N)N=C(N)N [metformin],reduction in the incidence of diabetes,incidence of diabetes,31%
"COc1ccc([C@@H]2CC(=O)c3c(O)cc(O[C@@H]4O[C@H](CO[C@@H]5O[C@@H](C)[C@H](O)[C@@H](O)[C@H]5O)[C@@H](O)[C@H](O)[C@H]4O)cc3O2)cc1O [hesperidin, 3′,5,7-trihydroxy-4′-methoxy-flavanone-7-rhamnoglucoside]","fasting glycaemia, insulinemia and glycated haemoglobin",[1],"reduced fasting glycaemia, insulinemia and glycated haemoglobin"
same,physical performance and oxidative stress,[2],improved physical performance and modulated oxidative stress
same,inflammation and blood pressure,[3],reduced inflammation and blood pressure
same,water solubility,[4],poor water solubility
same,bioavailability,[5],low bioavailability
chromium picolinate,BMI,[6]; [7],26.2 ± 1.0 kg/m2
same,CPK,[6]; [7],133 ± 22 U/L
same,DBP,[6]; [7],84 ± 4 mmHg
same,FPG,[6]; [7],112 ± 4 mg/dL
same,FPI,[6]; [7],20.9 ± 1.1 μU/ml
same,Gamma-GT,[6]; [7],27 ± 6 U/L
same,HbA1c,[6]; [7],6.4 ± 0.1%
same,SBP,[6]; [7],130 ± 7 mmHg
same,TG,[6]; [7],152 ± 10 mg/dL
same,HOMA-IR,"[6]; 12-Week follow-up, 1 tablet twice daily, HOMA-IR=(FPG*FPI)/405",5.7 ± 1.8
same,BMI,[6]; Baseline,26.2 ± 1.0 kg/m2
same,CPK,[6]; Baseline,134 ± 25 U/L
same,DBP,[6]; Baseline,85 ± 6 mmHg
same,FPG,[6]; Baseline,117 ± 5 mg/dL
same,FPI,[6]; Baseline,22.9 ± 1.0 μU/ml
same,Gamma-GT,[6]; Baseline,24 ± 9 U/L
same,HbA1c,[6]; Baseline,6.4 ± 0.3%
same,SBP,[6]; Baseline,131 ± 5 mmHg
same,TG,[6]; Baseline,159 ± 12 mg/dL
same,HOMA-IR,"[6]; Baseline, HOMA-IR=(FPG*FPI)/405",6.6 ± 1.2
same,"Observed efficacy rate (%), Reduction of FPG (−)","[6]; Chromium alone 100 mcg, Group E of example 7, 12 weeks",−4.2%
same,"reductions in HbAlc, FPG, FPI, HOMA-index, triglycerides (statistical significance)","[6]; after 12 weeks of treatment, with respect to baseline and placebo",did not show statistically significant reductions
same,reduction of fasting insulinemia (FPI),[6]; after 12 weeks vs baseline,4%
same,reduction of fasting plasma glucose (FPG),[6]; after 12 weeks vs baseline,4.2%
same,reduction of glycated haemoglobin (HbAlc),[6]; after 12 weeks vs baseline,did not achieve reductions
same,reduction of HOMA index,"[6]; after 12 weeks vs baseline, HOMA-IR=(FPG*FPI)/405",13%
